Earlier results, collected in patent publication US10299493B2, “Dietary supplement compositions with enhanced delivery matrix, gummies, chocolates, atomizers and powders containing same, and methods of making same” (priority 2013, dated 2019).

Conditions: temperature of 20° C.

In the case of `C/C=C/C=C/C(=O)[O-].[K+]` [Potassium sorbate], the solubility in water is listed as 58.2%.
